# Experimental data taken from patent US20050064044A1, “GSK-3beta inhibitors in the treatment of bone-related diseases” (priority 2003, published 2005).
# “Also recorded” adds a separate entry of the source.
# What was measured:
# LRP5 knockout mice = assay: Bone phenotype of LRP5 knockout mice, micro-CT tomodensitometric analysis of tibia; assay type: in vivo
# Protocol: In vivo model uses LRP5 knock-out animals that show osteopenia phenotype resulting from the absence of the Wnt canonical signalling pathway, said signalling pathway involving GSK-3β. Thanks to this model, the effect of GSK-3β inhibitors on bone mass can be observed.
# LRP5 knockout mouse model has been described as an osteopenic mouse model (Kato et al., 2002).
# LiCl solution was prepared in distillated water at 55 mg/ml. Compound was administered by micropump Alzet (ref: 1002, Charles Rivers, France) to 2-3 week-old LRP5 knockout (KO) mice for 2 weeks. Tibia were prepared for tomographic analysis (Tomodensitometer Scanco μCT20, Basserdorf, Switszerland). Micro-CT scans of the metaphyseal tibia were performed at an isotropic resolution of 9 μm, to obtain trabecular bone structural parameters. Using a two- and three-dimensional model and a semiautomatic contouring algorithm, three-dimensional bone volume, bone surface, and trabecular thickness were determined (FIG. 6).
# Statistical significance was determined by the ANOVA unpaired t'test.
# Results of tomodensitometric analysis of metaphyseal trabecular part of tibia from 5 week-old and 4 week-old LRP5-KO mice treated with vehicle or LiCl (200 mg/kg/d) during 15 days are given in FIGS. 4 and 5, respectively.
# C3H10T1/2 cells = assay: Alkaline phosphatase (ALP) osteoblast differentiation marker in C3H10T1/2 cells; assay type: cell-based; conditions: C3H10T1/2 cells stimulated for 48 h; ALP activity normalized for total protein; FIG. 2
# Source text: In vitro model used the pluripotent mesenchymal cell line C3H10T1/2 that is able to differentiate into osteoblasts when triggered with the right compound or protein. The ability of a compound to induce these C3H10T1/2 cells to differentiate into osteoblasts can be monitored by, for instance, measuring the expression of the osteoblast differentiation marker, alkaline phosphatase (ALP).
# Whether inhibition of GSK-3β by LiCl in C3H10T1/2 cells leads to the expression of ALP was investigated.
# C3H10T1/2 cells were stimulated with LiCl or with NaCl for 48 h. ALP activity was determined in cell lysates using Alkaline Phosphatase Opt kit (Roche Molecular Biochemicals). Cell lysates were analyzed for protein content using micro-BCA Assay kit (Pierce), and ALP activity was normalized for total protein concentration.
# [1] = test system: Wnt/β-catenin signalling (GSK-3β inhibition) in C3H10T1/2 cells; assay: Wnt signalling luciferase reporter construct in C3H10T1/2 cells; assay type: cell-based; conditions: C3H10T1/2 cells stimulated for 24 h; firefly normalized to Renilla luciferase; FIG. 1
# Protocol: Whether inhibition of GSK-3β in C3H10T1/2 cells leads to Wnt/β-catenin signalling activation was investigated.
# C3H10T1/2 cells were transiently transfected using Fugen6 (Boehringer) with a Wnt signalling luciferase reporter construct (van de Wetering et al., 1997). To assess transfection efficacy, 20 ng of pRL-TK (Promega) encoding a Renilla luciferase gene downstream of a minimal HSV-TK promoter was systematically added to the transfection mix. Cells were stimulated with LiCl or with NaCl for 24 h. Cells were lysated and luciferase assays were performed with the Dual Luciferase Assay Kit (Promega) according to the manufacturer's instructions. 10 μl of cell lysate was assayed first for firefly luciferase and then for Renilla luciferase activity. Firefly luciferase activity was normalized to Renilla luciferase activity.
# [2] = 4 week-old LRP5-KO mice treated for 15 days, vs vehicle, FIG. 6B/6D
# [3] = 4 week-old LRP5-KO mice, 200 mg/kg/d during 15 days, metaphyseal trabecular tibia, vs vehicle, FIG. 5
# [4] = 5 week-old LRP5-KO mice, 200 mg/kg/d during 15 days, metaphyseal trabecular tibia, vs vehicle, FIG. 4
smiles,measurement,setting,value
"[Cl-].[Li+] [LiCl, lithium]","bone volume, 3-D reconstruction of trabecular part of tibia",LRP5 knockout mice; [2],increase
same,"trabecular thickness, 3-D reconstruction of trabecular part of tibia",LRP5 knockout mice; [2],increase
same,BV/TV (bone volume),LRP5 knockout mice; [3],significantly increase
same,Tb.N (trabecular number),LRP5 knockout mice; [3],significantly increase
same,Tb.Th (trabecular thickness),LRP5 knockout mice; [3],significantly increase
same,BV/TV (bone volume),LRP5 knockout mice; [4],significantly increase
same,Tb.N (trabecular number),LRP5 knockout mice; [4],significantly increase
same,bone phenotype (osteopenia) of LRP5 knockout mice,"LRP5 knockout mice; LRP5-KO mice, FIGS. 4 and 5",partially reversed; also recorded: partly restored
same,expression of the ALP osteoblast differentiation marker,C3H10T1/2 cells,able to stimulate the expression of the ALP osteoblast differentiation marker
same,luciferase expression (Wnt-signalling luciferase reporter),[1],able to activate luciferase expression
